Here are results for six molecules from US20260345458A1, “Pharmaceutical, Dermatological or Cosmetic Compounds and Compositions for Reducing Melanin Synthesis, Stimulating Type I Collagen Production, Skin Depigmentation and/or Promoting a Skin Anti-Aging Effect in an Individual or Animal, Uses and Methods” (Chemyunion Ltda, priority 2022, published 2026).

Where a SMILES comes first, the peptide text is derived from it. The star is where a group is joined. Palmitoyl = CCCCCCCCCCCCCCCC(=O)*

Series [1] has as its system skin. Particulars: cited from earlier work; for ochronosis: skin becomes more pigmented than at the beginning of treatment.
The subject of series [2] is melanin synthesis. The conditions noted are these: as reported in prior patent documents; cited from earlier work.
Series [3] relates to melanin synthesis in human skin fragments. Description: Inhibition of melanin synthesis in human skin fragments (ex vivo explants, Fontana Masson staining). In kind it is cell-based. Particulars: 50 ppm; 72 h; ex vivo human skin explants (n=5); vs placebo; **p<0.01 (FIG. 1). An excerpt:
FIG. 1: Semi-quantification of melanin pigment levels. Data obtained by recording images of histological sections of human skin fragments previously treated with a formulation without active ingredient (Placebo) and treated with the same formulation containing the peptide SEQ ID No. 1 (Pal-Gln-His-Trp-Val-OH) (at 50 ppm or 100 ppm). **p<0.01 compared to the placebo group.
FIG. 2: Representative images of the effect of peptide SEQ ID No. 1 (Pal-Gln-His-Trp-Val-OH) on melanin synthesis in ex vivo skin fragments-Fontana Masson staining (400× magnification).
Example 1: Evaluation of Inhibition of Melanin Synthesis in Human Skin Fragments
Skin explants (n=5), obtained from a surgical procedure performed by an ophthalmological plastic surgery clinic, were treated for 72 h with a formulation containing the peptide SEQ ID No. 1 (Pal-Gln-His-Trp-Val-OH), (at 50 ppm or 100 ppm) and with the same formulation without the addition of the peptide (placebo).
After incubation with the test products as described above, the skin fragments were fixed in 4% paraformaldehyde (pH 7.4) for 24 hours. […]
Subsequently, the slides were analyzed and recorded using an optical microscope coupled to a camera.

Series [4] deals with type I collagen in human skin fragments. Kind of series: Collagen synthesis stimulation in human skin fragments (ex vivo explants, immunofluorescence). Particulars: 72 h, ex vivo human skin explants (n=5), vs placebo, **p<0.01 (FIG. 3). Type of series: cell-based. The source says:
FIG. 3. Semi-quantification of type I collagen levels. Data obtained by recording images of histological sections of human skin fragments previously treated with a formulation without active ingredient (Placebo) and treated with the same formulation containing the peptide SEQ ID No. 1 (Pal-Gln-His-Trp-Val-OH) (at 50 ppm or 100 ppm). **p<0.01 compared to the placebo group.
FIG. 4. Representative images of the effect of peptide SEQ ID No. 1 (Pal-Gln-His-Trp-Val-OH) on the synthesis of type I collagen in ex vivo skin fragments-immunofluorescence (400× magnification).
Example 2: Evaluation of Collagen Synthesis Stimulation in Human Skin Fragments
Skin explants (n=5) obtained from a surgical procedure performed by the ophthalmologic plastic surgery clinic were treated for 72 h with a formulation containing the peptide SEQ ID No. 1 (Pal-Gln-His-Trp-Val-OH) (at 50 ppm or 100 ppm) and with the same formulation without the addition of the peptide (placebo). After incubation with the test products as described above, the skin fragments were fixed in 4% paraformaldehyde (pH 7.4) for 24 h. […] The skin sections were then subjected to the specific labeling process for type I collagen for subsequent immunofluorescence analysis; the records were obtained using a fluorescence optical microscope coupled to a photographic camera.

Series [5] concerns rats. The conditions noted are these: cited from earlier work.

For `Oc1ccc(O)cc1` [hydroquinone], the ochronosis entry in series [1] is “can cause ochronosis”. Also, the “effect on extracellular matrix fibers, adrenal glands, thyroid physiology and skin firmness” value in series [1] (topical application, studies suggest) is “can disrupt the fibers of the extracellular matrix (especially collagen and elastin), leading to changes in the adrenal glands and thyroid physiology, as well as loss of skin firmness”.

With `CCCCCCCCCCCCCCCC(=O)N[C@@H](Cc1ccc(O)cc1)C(=O)N[C@@H](Cc1ccc(O)cc1)C(=O)N[C@@H](CCSC)C(N)=O` [Pal-TyrTyrMet-NH2] (Palmitoyl-Tyr-Tyr-Met-NH2), the “activity on melanin synthesis / skin lightening” value in series [2] was “stimulating melanin synthesis”.

In the case of Caffeoyl-GlnHisGlyVal-OH, in series [2], the “activity on melanin synthesis / skin lightening” value is “has skin lightening activity due to its anti-inflammatory activity”.

Take `CCCCCCCCCCCCCCCC(=O)N[C@@H](CCC(N)=O)C(=O)N[C@@H](Cc1c[nH]cn1)C(=O)N[C@@H](Cc1c[nH]c2ccccc12)C(=O)N[C@H](C(=O)O)C(C)C` [SEQ ID No. 1, Pal-Gln-His-Trp-Val-OH] (Palmitoyl-QHWV-OH): the “reduction of melanin production compared to the placebo group” value in series [3] is 66%. The “stimulation of collagen I production compared to the placebo group” value in series [4] (50 ppm) turned out to be 63%. Also, in series [4] (100 ppm), the “increase in protein (type I collagen) synthesis compared to the placebo group” value turned out to be 71%.

For the molecule `OC[C@H]1O[C@@H](Oc2ccc(O)cc2)[C@H](O)[C@@H](O)[C@@H]1O` [arbutin], the ochronosis result in series [1] is given as “can cause ochronosis”.

Turning to `O=c1cc(CO)occ1O` [Kojic acid], the promotion of cancer entry in series [5] was “has been found to promote the development of liver and thyroid cancer in rats”.
